In patent publication US8889874B2, “Imidazolone-chalcone derivatives as potential anticancer agent and process for the preparation thereof” (Council of Scientific and Industrial Research, priority 2010, dated 2014):
Like-named read-outs stand apart in the source and are kept apart here.

What was measured:
Assay type in all cases: cell-based, human
[1] = system: Ovarian cancer cell lines; test: NCI anticancer screen, SRB assay, panel summary; details: Homo sapiens
Experimental: (§1) Some of biological activity studies were carried out at the National Cancer Institute (NCI), Maryland, USA.
(§2) The compounds were evaluated for anticancer activity against fifty three human cancer cells derived from nine cancer types (leukemia cell line, non-small-cell lung cell line, colon cell line, CNS cell line, melanoma cell line, ovarian cell line, prostate cell line, and breast cancer cell line) as shown in Table 1. For each compound, dose response curves for each cell line were measured at a minimum of five concentrations at 10 fold dilutions. A protocol of 48 h continuous drug exposure was used and a sulforhodamine B (SRB) protein assay was used to estimate cell viability or growth.

[2] = system: Leukemia cancer cell lines; test: NCI anticancer screen, SRB assay, panel summary; details: Homo sapiens
Experimental: as §1, §2

[3] = system: Renal cancer cell lines; test: NCI anticancer screen, SRB assay, panel summary; details: Homo sapiens
Experimental: as §1, §2

[4] = system: Breast cancer cell lines; test: NCI anticancer screen, SRB assay, panel summary; details: Homo sapiens
Experimental: as §1, §2

[5] = system: Melanoma cancer cell lines; test: NCI anticancer screen, SRB assay, panel summary; details: for GI50: Homo sapiens
Experimental: as §1, §2

[6] = system: Colon cancer cell lines; test: NCI anticancer screen, SRB assay, panel summary; details: for GI50: Homo sapiens
Experimental: as §1, §2

[7] = system: Non-small cell lung cancer cell lines; test: NCI anticancer screen, SRB assay, panel summary; details: Homo sapiens
Experimental: as §1, §2

[8] = system: CNS cancer cell lines; test: NCI anticancer screen, SRB assay, panel summary; details: for GI50: Homo sapiens
Experimental: as §1, §2

[9] = system: Prostate cancer cell lines; test: NCI anticancer screen, SRB assay, panel summary
Experimental: as §1, §2

[10] = system: BT-549 (breast); test: NCI anticancer screen, SRB assay, 48 h; details: Homo sapiens
Experimental: as §1, §2

[11] = system: HCT-15 (colon); test: NCI anticancer screen, SRB assay, 48 h; details: Homo sapiens
Experimental: as §1, §2

[12] = system: HCC-2998 (colon); test: NCI anticancer screen, SRB assay, 48 h; details: Homo sapiens
Experimental: as §1, §2

[13] = system: K-562 (leukemia cell line); test: NCI anticancer screen, SRB assay, 48 h; details: Homo sapiens
Experimental: as §1, §2

[14] = system: SF-295 (CNS); test: NCI anticancer screen, SRB assay, 48 h; details: Homo sapiens
Experimental: as §1, §2

[15] = system: NCI-H460 (non-small cell lung); test: NCI anticancer screen, SRB assay, 48 h; details: Homo sapiens
Experimental: as §1, §2

[16] = system: SN12C (renal); test: NCI anticancer screen, SRB assay, 48 h; details: Homo sapiens, SN12C
Experimental: as §1, §2

[17] = system: U251 (CNS); test: NCI anticancer screen, SRB assay, 48 h; details: Homo sapiens
Experimental: as §1, §2

[18] = system: MCF7 (breast); test: NCI anticancer screen, SRB assay, 48 h; details: Homo sapiens
Experimental: as §1, §2

[19] = system: MDA-MB-435 (melanoma); test: NCI anticancer screen, SRB assay, 48 h; details: Homo sapiens
Experimental: as §1, §2

[20] = system: SK-MEL-5 (melanoma); test: NCI anticancer screen, SRB assay, 48 h; details: Homo sapiens
Experimental: as §1, §2

[21] = system: LOX IMVI (melanoma); test: NCI anticancer screen, SRB assay, 48 h; details: Homo sapiens
Experimental: as §1, §2

[22] = system: OVCAR-5 (ovarian); test: NCI anticancer screen, SRB assay, 48 h; details: Homo sapiens
Experimental: as §1, §2

[23] = system: SF-539 (CNS); test: NCI anticancer screen, SRB assay, 48 h; details: Homo sapiens
Experimental: as §1, §2

[24] = system: 786-0 (renal); test: NCI anticancer screen, SRB assay, 48 h; details: Homo sapiens
Experimental: as §1, §2

[25] = system: SW-620 (colon); test: NCI anticancer screen, SRB assay, 48 h; details: Homo sapiens
Experimental: as §1, §2

[26] = system: A498 (renal); test: NCI anticancer screen, SRB assay, 48 h; details: Homo sapiens
Experimental: as §1, §2

[27] = system: PC-3 (prostate); test: NCI anticancer screen, SRB assay, 48 h; details: Homo sapiens
Experimental: as §1, §2

[28] = system: TK-10 (renal); test: NCI anticancer screen, SRB assay, 48 h; details: Homo sapiens
Experimental: as §1, §2

[29] = system: SF-268 (CNS); test: NCI anticancer screen, SRB assay, 48 h; details: Homo sapiens
Experimental: as §1, §2

[30] = system: MDA-MB-231/ATCC (breast); test: NCI anticancer screen, SRB assay, 48 h; details: Homo sapiens
Experimental: as §1, §2

[31] = 48 h exposure, SRB, read-out: GI50
[32] = read-out: pGI50 (-log of molar concentration causing 50% inhibition of net cell growth) (converted)

## COc1cc(/C=C/C(=O)c2cccc(-n3cc(-c4cc(OC)c(OC)c(OC)c4)[nH]c3=O)c2)cc(OC)c1OC [5d, 4-(3,4,5-trimethoxyphenyl)-1-3-[(E)-3-(3,4,5-trimethoxyphenyl)-2-propenoyl]phenyl-2,3-dihydro-1H-2-imidazolone]
[1]; Ovarian panel, log of concentration in mol/L causing 50% inhibition of net cell growth, read-out: mean graph midpoint (MG_MID) of Log10 GI50 (converted)
  GI50: 2.95 µM
[1]; Ovarian panel, log of concentration leading to 50% net cell death, read-out: mean graph midpoint (MG_MID) of Log10 LC50 (converted)
  LC50: 75.9 µM
[1]; six ovarian cancer cell lines, exposure at least 48 hrs, read-out: GI50, range over the panel
  GI50: 1.48 to 5.12 µM
[2]; Leukemia panel, log of concentration in mol/L causing 50% inhibition of net cell growth, read-out: mean graph midpoint (MG_MID) of Log10 GI50 (converted)
  GI50: 0.38 µM
[2]; Leukemia panel, log of concentration leading to 50% net cell death, read-out: mean graph midpoint (MG_MID) of Log10 LC50 (converted)
  LC50: ≥ 100 µM
[2]; two leukemia cancer cell lines (RPMI-8226 and K-562), exposure at least 48 hrs, read-out: GI50, range over the panel
  GI50: 0.23 to 0.59 µM
[3]; Renal panel, log of concentration in mol/L causing 50% inhibition of net cell growth, read-out: mean graph midpoint (MG_MID) of Log10 GI50 (converted)
  GI50: 2.63 µM
[3]; Renal panel, log of concentration leading to 50% net cell death, read-out: mean graph midpoint (MG_MID) of Log10 LC50 (converted)
  LC50: 27.5 µM
[3]; eight renal cancer cell lines, exposure at least 48 hrs, read-out: GI50, range over the panel
  GI50: 0.96 to 20.3 µM
[4]; Breast panel, log of concentration in mol/L causing 50% inhibition of net cell growth, read-out: mean graph midpoint (MG_MID) of Log10 GI50 (converted)
  GI50: 3.98 µM
[4]; Breast panel, log of concentration leading to 50% net cell death, read-out: mean graph midpoint (MG_MID) of Log10 LC50 (converted)
  LC50: 45.7 µM
[4]; five breast cancer cell lines, exposure at least 48 hrs, read-out: GI50, range over the panel
  GI50: 0.47 to 4.19 µM
[5]; Melanoma panel, log of concentration in mol/L causing 50% inhibition of net cell growth, read-out: mean graph midpoint (MG_MID) of Log10 GI50 (converted)
  GI50: 2.04 µM
[5]; nine melanoma cancer cell lines, exposure at least 48 hrs, read-out: GI50, range over the panel
  GI50: 1.23 to 3.02 µM
[5]; Melanoma panel, log of concentration leading to 50% net cell death
  mean graph midpoint (MG_MID) of Log10 LC50: 4.67
[6]; Colon panel, log of concentration leading to 50% net cell death
  mean graph midpoint (MG_MID) of Log10 LC50: 4.19
[6]; Colon panel, log of concentration in mol/L causing 50% inhibition of net cell growth, read-out: mean graph midpoint (MG_MID) of Log10 GI50 (converted)
  GI50: 1.91 µM
[6]; seven colon cancer cell lines, exposure at least 48 hrs, read-out: GI50, range over the panel
  GI50: 0.74 to 1.92 µM
[7]; Non-small cell lung panel, log of concentration in mol/L causing 50% inhibition of net cell growth, read-out: mean graph midpoint (MG_MID) of Log10 GI50 (converted)
  GI50: 13.8 µM
[7]; nine non-small cell lung cancer cell lines, exposure at least 48 hrs, read-out: GI50, range over the panel
  GI50: 1.05 to 14.4 µM
[8]; CNS panel, log of concentration leading to 50% net cell death
  mean graph midpoint (MG_MID) of Log10 LC50: 4.29
[8]; CNS panel, log of concentration in mol/L causing 50% inhibition of net cell growth, read-out: mean graph midpoint (MG_MID) of Log10 GI50 (converted)
  GI50: 3.09 µM
[8]; six CNS cancer cell lines, exposure at least 48 hrs, read-out: GI50, range over the panel
  GI50: 1.23 to 4.96 µM
[9]; Homo sapiens, log of concentration in mol/L causing 50% inhibition of net cell growth, read-out: mean graph midpoint (MG_MID) of Log10 GI50 (converted)
  GI50: 2.63 µM
[9]; Homo sapiens, log of concentration leading to 50% net cell death, read-out: mean graph midpoint (MG_MID) of Log10 LC50 (converted)
  LC50: ≥ 100 µM
[9]; log of concentration resulting in total inhibition of net cell growth
  mean graph midpoint (MG_MID) of Log10 TGI: 4.73
[10]; [31]
  GI50: 1.52 µM
[10]; [32]
  GI50: 1.51 µM
[11]; [31]
  GI50: 1.89 µM
[11]; [32]
  GI50: 1.91 µM
[12]; [31]
  GI50: 1.92 µM
[12]; [32]
  GI50: 1.91 µM
[13]; K562, 48 h exposure, SRB, read-out: GI50
  GI50: 0.59 µM
[13]; K562, read-out: pGI50 (-log of molar concentration causing 50% inhibition of net cell growth) (converted)
  GI50: 0.589 µM
[14]; [31]
  GI50: 4.96 µM
[14]; [32]
  GI50: 5.01 µM
[15]; [31]
  GI50: 1.73 µM
[15]; [32]
  GI50: 1.74 µM
[16]; SN 12C, read-out: pGI50 (-log of molar concentration causing 50% inhibition of net cell growth) (converted)
  GI50: 2.75 µM
[16]; [31]
  GI50: 2.75 µM
[17]; U-251, 48 h exposure, SRB, read-out: GI50
  GI50: 1.23 µM
[17]; U-251, read-out: pGI50 (-log of molar concentration causing 50% inhibition of net cell growth) (converted)
  GI50: 1.23 µM
[18]; [31]
  GI50: 0.47 µM
[18]; [32]
  GI50: 0.468 µM
[19]; [31]
  GI50: 2.11 µM
[19]; [32]
  GI50: 2.09 µM
[20]; [31]
  GI50: 2.76 µM
[20]; [32]
  GI50: 2.75 µM
[21]; [31]
  GI50: 1.23 µM
[21]; [32]
  GI50: 1.23 µM
[22]; [31]
  GI50: 4.38 µM
[22]; [32]
  GI50: 4.37 µM
[23]; [31]
  GI50: 3.12 µM
[23]; [32]
  GI50: 3.09 µM
[24]; [31]
  GI50: 1.59 µM
[24]; [32]
  GI50: 1.58 µM
[25]; [31]
  GI50: 1.03 µM
[25]; [32]
  GI50: 1.02 µM
[26]; [31]
  GI50: 20.3 µM
[26]; [32]
  GI50: 20.4 µM
[27]; PC-3, read-out: pGI50 (-log of molar concentration causing 50% inhibition of net cell growth) (converted)
  GI50: 2.63 µM
[27]; one prostate cancer cell line (PC-3), exposure at least 48 hrs, read-out: GI50
  GI50: 2.63 µM
[28]; [31]
  GI50: 3 µM
[28]; [32]
  GI50: 3.02 µM
[29]; [31]
  GI50: 2.2 µM
[29]; [32]
  GI50: 2.19 µM
[30]; [31]
  GI50: 4.19 µM
[30]; [32]
  GI50: 4.17 µM
